# Results from patent US5189044A, “Isoquinoline-1,3-dione acetyl carbamates useful as aldose reductase inhibitors” (American Home Products Corporation, priority 1992, dated 1993).
# Tests used:
# [1] = tested on: aldose reductase; details: 10^-5 M; aldose reductase from bovine lens
# Experimental: (c) The polyol determination was performed by a modification of the procedure of M. Kraml and L. Cosyns, Clin. Biochem., 2,373 (1969). Only two minor reagent changes were made: (a) The rinsing mixture was an aqueous 5% (w/v) trichloroacetic acid solution and (b) the stock solution was prepared by dissolving 25 mg of dulcitol in 100 ml of an aqueous trichloroacetic acid solution. [N.B.: For each experiment the average value found in the tissue from rats fed the glucose diet was subtracted from the individual values found in the corresponding tissue in galactose-fed rats to obtain the amount of polyol accumulated.] […] In the present case the procedure of Hayman and Kinoshita was modified in that the final chromatography step was omitted in the preparation of the enzyme from bovine lens.
# [2] = tested on: dulcitol accumulation in the sciatic nerve; experiment: galactosemic rats, dulcitol (galactitol) accumulation in sciatic nerve; format: in vivo, rat (Sprague-Dawley); details: 4 days, vs untreated galactosemic rats
# From the text: (§1) The aldose reductase inhibiting property of the compounds of this invention and the utilization of the compounds in preventing, diminishing and alleviating diabetic complications are demonstrable in experiments using galactosemic rats, see Dvornik et al., Science, 182, 1146 (1973). Such experiments are exemplified hereinbelow after the listing of the following general comments pertaining to these experiments:
# (§2) (a) Four or more groups of six male rats, 50-70 g, Sprague-Dawley strain, were used. The first group, the control group, was fed a mixture of laboratory chow (Rodent Laboratory Chow, Purina) and glucose at 20% (w/w %) concentration. The untreated galactosemic group was fed a similar diet in which galactose is substituted for glucose. The third group was fed a diet prepared by mixing a given amount of the test compound with the galactose containing diet. The concentration of the galactose in the diet of the treated groups was the same as that for the untreated galactosemic group.
# (§3) (b) After four days, the animals were killed by euthanization. The lenses were removed from the eyes and weighed. The sciatic nerves were dissected as completely as possible and weighed. Both tissues when frozen can be kept up to two weeks before being analyzed for dulcitol.
# (§4) The figures under N and D represent the percentage decrease of dulcitol accumulation in the tissues of the sciatic nerve and diaphragm, respectively, for treated rats as compared to untreated rats.
# [3] = tested on: dulcitol accumulation in the diaphragm; experiment: galactosemic rats, dulcitol (galactitol) accumulation in diaphragm; format: in vivo, rat (Sprague-Dawley); details: 4 days, vs untreated galactosemic rats
# From the text: as §1, §2, §3, §4
Structure (SMILES),% Inhibition in vitro [1] [%],"% Lowering Galacitol Accumulation in Vivo, Sciatic Nerve ([2]; 49.3 mg/kg/day in diet) [%]","% Lowering Galacitol Accumulation in Vivo, Sciatic Nerve ([2]; 93.6 mg/kg/day in diet) [%]","% Lowering Galacitol Accumulation in Vivo, Diaphragm ([3]; 49.3 mg/kg/day in diet) [%]","% Lowering Galacitol Accumulation in Vivo, Diaphragm ([3]; 93.6 mg/kg/day in diet) [%]","% Lowering Galacitol Accumulation in Vivo, Sciatic Nerve ([2]; 48.8 mg/kg/day in diet) [%]","% Lowering Galacitol Accumulation in Vivo, Sciatic Nerve ([2]; 96.6 mg/kg/day in diet) [%]","% Lowering Galacitol Accumulation in Vivo, Diaphragm ([3]; 48.8 mg/kg/day in diet) [%]","% Lowering Galacitol Accumulation in Vivo, Diaphragm ([3]; 96.6 mg/kg/day in diet) [%]"
COC(=O)NC(=O)CC1C(=O)N(Cc2nc3cc(C(F)(F)F)ccc3s2)C(=O)c2ccc(F)cc21 (stereo not shown) [F],83,39,59,74,81,,,,
COC(=O)NC(=O)CC1C(=O)N(Cc2nc3cc(C(F)(F)F)ccc3s2)C(=O)c2ccccc21 (stereo not shown) [H],95,,,,,61,73,81,87
